The target in this assay is T1, protein arginine methyltransferase 5 (PRMT5) (Homo sapiens, UniProt O14744).
T1 construct: Flag-tagged WT-PRMT5 purified from 293 cells with anti-Flag-M2 beads
Description: AlphaLISA methyltransferase assay (biotinylated histone H4 R3 symmetric dimethylation). The format is biochemical.

T1 sequence (O14744 2-637): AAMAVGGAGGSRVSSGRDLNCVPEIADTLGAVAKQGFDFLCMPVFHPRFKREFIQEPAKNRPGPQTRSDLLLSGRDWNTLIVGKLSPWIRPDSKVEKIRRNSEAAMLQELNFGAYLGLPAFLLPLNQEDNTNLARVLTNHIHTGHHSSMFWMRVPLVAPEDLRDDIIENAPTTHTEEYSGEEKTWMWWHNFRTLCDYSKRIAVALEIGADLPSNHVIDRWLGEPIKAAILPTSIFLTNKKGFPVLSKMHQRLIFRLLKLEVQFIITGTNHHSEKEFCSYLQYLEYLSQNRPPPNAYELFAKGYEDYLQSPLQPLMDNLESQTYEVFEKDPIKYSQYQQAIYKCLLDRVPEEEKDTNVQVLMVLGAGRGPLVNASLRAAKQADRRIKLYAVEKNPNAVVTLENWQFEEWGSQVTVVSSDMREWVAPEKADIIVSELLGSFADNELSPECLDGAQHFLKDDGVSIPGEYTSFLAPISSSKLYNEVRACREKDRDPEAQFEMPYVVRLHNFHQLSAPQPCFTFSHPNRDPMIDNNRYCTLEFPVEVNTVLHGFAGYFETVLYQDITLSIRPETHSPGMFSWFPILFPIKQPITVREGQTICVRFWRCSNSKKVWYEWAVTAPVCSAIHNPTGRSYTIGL

`Cc1ccc(Nc2nc(NCCN(C)C)nc3c2cnn3-c2ccccc2)cc1C` [PR5-LL-CM01] showed a half-inhibitory concentration (IC50) of 7.5 µM.
